Like-named read-outs stand apart in the source and are kept apart here.
How the values were obtained:
[1] = tested on: symptoms of bipolar disorder (bipolar disorder II); assay: Case report Subject B: antiestrogen to treat symptoms of bipolar disorder; assay type: in vivo, human
Experimental: Subject B is a person in good general physical health with a family history of bipolar disorder. Subject B underwent Cholecystectomy. Subject B was diagnosed with Meniere's Syndrome. Subject B was diagnosed with bipolar disorder II, at which time Lamictal was prescribed by a psychiatrist. […] The psychiatrist then prescribed Effexor XR® (venlafaxine hydrochloride) 75 mg/daily. […] A general physician prescribed 1.5 mg/Klonopin® (Clonazepam) daily.
Subject B also remained mentally alert and stable. […] Currently, Subject B remains stable and emotionally level.
Subject B's spouse states that Subject B is much more level, enjoys their life to a new degree, no longer loses control or becomes violent without warning. The entire family feels that life is much easier since Subject B began taking the antiestrogen.

[2] = tested on: symptoms of acute/severe depression; assay: Case report Subject C: antiestrogen in descending daily dosing to treat acute/severe depression; assay type: in vivo, human
From the text: Subject C is a person in good general physical health with no previous history of mental illness or depression. Subject C was prescribed Dapsone as a child in order to treat to treat dermititis herpetiformis. Subject C received no medication in the past four years. In December 2008, Subject C became lethargic, uninterested in usually pleasurable activities, restless, and began oversleeping. After a full month, symptoms of depression became extreme and subject C was thought to be in danger of becoming suicidal.
Subject C's last dose was 2.5 mg on the fifth day.
Suicidal thoughts returned and Subject C considered dropping out of law school. Subject C started a descending dose course of Arimidex®; starting with a single dose of 1 mg on day one. Again, symptoms of depression faded noticeably within 8 hours, in a manner similar to that in response to treatment with tamoxifen. Subject C took single daily doses of Arimidex®; 0.5 mg on day two; 0.25 mg each on days three and four.

[3] = tested on: symptoms of bipolar disorder (bipolar I); assay: Pilot study Subject D: tamoxifen citrate added to bipolar medication, mood charts and psychiatrist visits; assay type: in vivo, human
From the text: Subject D is a person with a family history of bipolar disorder. Although Subject D had symptoms spanning Asperger's Syndrome, Bipolar I, Obsessive-Compulsive Disorder, Oppositional Defiant Disorder and anti-social traits, bipolar I was the diagnosis for several reasons, including the fact that it was present on both sides of the family and the symptoms were better suited to a bipolar diagnosis.
First visit: Day 1. Due to Subject D's extreme condition, past hospitalizations and the complicated mixture of medications, the psychiatrist spent approximately one hour with the subject. […] Subject D was also given a copy of the Gary Sach's Mood Chart for the subject and their parent to be filled out daily for the psychiatrist's weekly review.

[4] = tested on: symptoms of bipolar disorder; assay: Pilot study Subject E: tamoxifen citrate added to bipolar medication, mood charts and psychiatrist visits; assay type: in vivo, human
From the text: Subject E is a person and an insulin dependent diabetic. Subject E was diagnosed with bipolar disorder at […]. They have had surgery in the past for their knees, their neck and stitches for their head. Subject E has been institutionalized multiple times within the last nine years for their own protection. To date, no medications have seemed to help. Subject also has a history of alcoholism. Some complexity was expected in treatment due to diabetes.

[5] = tested on: symptoms of bipolar disorder; details: Subject F; for onset of noticed difference: tamoxifen citrate 20 mg qd
From the text: In a preferred aspect, the patient fills out the mood chart on a regular basis and a family member, friend, roommate or clinical or institutional staff member who interacts with the patient on a regular basis, also records a parallel mood chart on a regular basis. […] In another aspect, a mood chart is started at the start of treatment with an antiestrogen.
Subject F is a person who experienced a coronary three years prior to starting the study that their doctors blamed on stimulants used for ADD. Subject F had stents placed following the coronary. […] They maintain a job where they can do much of the work from home. It has been over a year since they were so severe they could not get out of bed or work. They have not had any extreme episodes in the immediate past. Subject F is nearsighted and has high blood pressure.

[6] = tested on: mania in patients with bipolar disorder; details: Yildiz et al. 2008; cited from earlier work
[7] = tested on: symptoms of bipolar disorder (bipolar disorder I); assay: Case report Subject A: antiestrogen to treat symptoms of bipolar disorder; details: tamoxifen citrate 20 mg base equivalents or Arimidex 1 mg, once every day or every other day
Experimental: The following list describes the drugs that were tried in combination with Eskalith: • 1. Depakote® (Divalproex Sodium Delayed Release Tablets) 50 mg daily. […] Tegretol XR® (Carbamazepine) 200 mg twice daily. […] Risperdal® (Risperidone) 3 mg per day. […] Prozac® (Olanzapine and Fluoxetine hydrochloride) 20 mg twice daily. […] Klonopin® (Clonazepam): originally from 2002 to 2009 was 8 mg to 10 mg daily for generalized anxiety. […] Lamictal® (Lamotrigine) Titration schedule over five weeks up to 250 mg twice daily.

## CC/C(=C(\c1ccccc1)c1ccc(OCCN(C)C)cc1)c1ccccc1.O=C(O)CC(O)(CC(=O)O)C(=O)O [Tamoxifen citrate, (Z)2-[4-(1,2-diphenyl-1-butenyl)phenoxy]-N,N-dimethylethanamine 2-hydroxy-1,2,3-propanetricarboxylate (1:1)]
[1]
  time remained stable since beginning treatment: approximately 18 months
[1]; tamoxifen citrate 10 mg or 20 mg base equivalents taken regularly as only mood-stabilizing medication
  bipolar symptoms: no longer has bipolar symptoms
[1]; tamoxifen citrate 20 mg base equivalents daily for two weeks
  mood stability: increased mood stability and overall feeling of well being
[2]
  symptom-free period after the course: three months with no symptoms of depression
[2]; single dose on day one: tamoxifen citrate 20 mg or Arimidex 1 mg
  time to lessening of symptoms of depression after the first dose: within the first eight hours
[2]; tamoxifen citrate 20/10/5/2.5/2.5 mg days 1-5, Arimidex 1/0.5/0.25/0.25 mg days 1-4
  symptoms of depression after the descending dose course: Symptoms of depression were alleviated
[3]; Day 9, tamoxifen citrate 20 mg qd
  mood and energy as told to the psychiatrist: happier than they have been in a long time and has more energy
[3]; tamoxifen citrate 20 mg qd added to Lithium ER, Depakote ER, Risperidone, Geodon
  onset of feeling more balanced: began feeling more balanced after only four days
[3]; to Day 153, tamoxifen 20-30 mg daily
  reduction of concurrent bipolar medication: the doses of Depakote ER, Risperidone and Geodon were each able to be significantly reduced and Lithium was able to be discontinued
[4]; Day 34, tamoxifen citrate 20 mg qd, other drugs cut in dose, listed as tamoxifen
  response to treatment: responded well
[4]; to Day 148, tamoxifen 20 mg daily
  reduction of concurrent bipolar medication: Topamax and Fluoxetine were able to be discontinued, and the dose of Abilify was significantly reduced
[5]; Day 13, tamoxifen citrate 20 mg qd, Strattera not taken
  anger: felt less angry even without taking the Strattera
[5]; Day 52, Lamictal lowered to 100 mg qd
  subject's report to study coordinator: noticing the ability to sense their moods better
[5]; Day 70, dose forgotten the day before
  mood after a forgotten dose: felt more depressed than any day since they started the program
[5]; Day 77
  out of control spending: they have not had this problem since they went on the Tamoxifen
[5]; Day 84
  outbursts: one outburst with their spouse, the first since starting Tamoxifen
[5]; listed as Tamoxifen
  onset of noticed difference: positive difference around four days after starting
[5]; listed as tamoxifen citrate
  onset of noticed difference: noticed a difference within three or four days
[5]; to Day 98, since starting Tamoxifen Citrate
  moods, spending, anger (synopsis): their moods have been level, their normally “out of control spending” was no longer a problem and their anger and problems with spouse have all but vanished
[5]; to Day 98, tamoxifen 20 mg daily
  reduction of concurrent bipolar medication: Lamictal was able to be discontinued, and Strattera was able to remain discontinued with mood stabilization
[6]
  treatment of mania: effective in treatment of mania in patients with bipolar disorder
[7]
  mood swings with the antiestrogen as only bipolar medication: controls mood swings without the concurrent use of other bipolar medication
[7]; listed as tamoxifen citrate
  mood swings with the antiestrogen as only bipolar medication: mood swings became virtually non-existent

From US20120201908A1, “METHOD OF TREATING BIPOLAR DISORDER OR DEPRESSION USING AN ANTIESTROGEN” (Lunera Equities, LLLP, priority 2009, published 2012)
